Reference: patent US20260272879A1, “ANION-BINDING AROMATIC OLIGOAMIDE MACROCYCLES AND METHODS OF MAKING AND USING SAME” (The Research Foundation for The State University of New York, priority 2023, published 2026)

Legend:
[1] = Isothermal titration calorimetry (ITC), I^−; format: binding; settings: 25° C.
Description: (§1) Isothermal titration calorimetry (ITC) experiments were performed using a MicroCal VP-ITC. ITC experiments were conducted by adding ~1.5 mL of a solution containing c5a to the sample cell. Followed by titrating 10 μL aliquots of a solution containing the corresponding TBA·X salt (~10-14× concentration of c5a solution) from the syringe into the sample cell. Heats of dilution were obtained by titrating 10 μL aliquots of the TBA·X solution from the syringe into the sample cell in the absence of c5a. The heats of dilution were subtracted from the raw data. ITC data processing and curve fitting was done using the Origin program (MicroCal).
(§2) Two-step competition ITC experiments for determining the Ka of c5a and iodide. In CH3CN:CHCl3 (5:95, v/v), the binding affinity of c5a for I^− was too high to be determined with direct NMR or ITC titration. Instead, two-step competition ITC experiments with Cl^− as the competitor were performed.

[2] = 1H NMR titration, binding of ClO4^−; settings: DMSO-d6:CDCl3 (15:85, v/v), 25° C.
Description: (§3) ^1H NMR titration methods. Titrations of c5a and c5b with anions as their tetra-n-butylammonium (TBA), tetra-ethylammonium (TEA) and tetra-methylammonium (TMA) salts were carried out by ^1H NMR (400 MHz) at 25° C. 0.4 mL of corresponding hosts solutions were prepared in the rubber-cap NMR tubes. Aliquots of concentrated guest solution containing hosts were added into the NMR tubes using 20 microliter pipette. An initial ^1H NMR spectrum was collected and additional spectra were obtained after each injection of guest solution. All titration ^1H NMR spectra were stacked together and the chemical shifts of the internal aromatic CH proton were then fitted to 1:1 binding model using BindFit v0.5 (http://app.supramolecular.org/bindfit/) to evaluate binding constants to anions.

[3] = 1H NMR titration, binding of chloride; settings: DMSO-d6:CDCl3 (15:85, v/v), 25° C., NMR titration (protons a and b)
Description: ^1H NMR Titration methods. Titrations of 4c and 6c with anions as their tetra-n-butyl ammonium (TBA) salts were carried out by ^1H NMR (400 MHz on Bruker-400) at room temperature (298 K). 0.5 mL of receptor 4c (5.0 mM) or 6c (2.0 mM) were prepared in the rubber-cap NMR tubes. Aliquots of concentrated TBACl or TBAI solution (50 mM for the titration of 4c and 20 mM for the titration of 6c) containing the same amount of receptors were added into the receptor solution using 20 microliter pipette. An initial ^1H NMR spectrum was collected and additional spectra were obtained after each injection of TBACl or TBAI solution. All titration ^1H NMR spectra were stacked together and the chemical shifts of amide protons were then fitted to the proposed 1:1 binding model using BindFit v0.5 (http://app.supramolecular.org/bindfit/).
(§4) Anion binding with four amides, i.e., L1mer-L4mer, was studied in the mixed solvents of CD3CN/CDCl3 (1/9, v/v) by titrating an amide host with 0 to 5 equivalents of tetrabutylammonium (n-Bu4N^+) salt of the corresponding anion. The binding of chloride, bromide, iodide, and nitrate was examined with the four amides in CDCl3 containing 10% CD3CN. The titration data were collected by monitoring the changes in chemical shifts of the backbone amide protons and the inner aromatic protons with varying ratios of the anion guests. Job plots indicate that these linear oligoamides and their anion guests bind in a 1:1 stoichiometry.
(§5) The binding of anions by macrocycle 7c was examined in CH3CN/CHCl3 (6/4, v/v) and in DMSO by titrating with various equivalents of the salts of chloride, iodide. nitrate, and dihydrogen phosphate, with tetrabutylammonium (n-Bu4N^+) being the counterion ion. Following the changes in the chemical shifts of backbone amide protons and “inner” aromatic protons allowed the determination of binding constants.
^1H NMR titration methods. Titrations of c5a and c5b with anions as their tetra-n-butylammonium (TBA), tetra-ethylammonium (TEA) and tetra-methylammonium (TMA) salts were carried out by ^1H NMR (400 MHz) at 25° C. […]

[4] = Halide transport, lucigenin assay; format: biochemical; settings: POPC LUVs, inside 100 mM NaNO3 + 1 mM lucigenin, outside 100 mM NaX, pH 7.0
From the text: Determination of halide transport with the lucigenin assay.

[5] = 1H NMR titration, binding of PF6^−; settings: DMSO-d6:CDCl3 (15:85, v/v), 25° C., NMR titration (protons a and b)
Description: as §3

[6] = 1H NMR titration, binding of nitrate; settings: 25° C.
From the text: as §4, §5, §3

[7] = Isothermal titration calorimetry (ITC), PF6^−; format: binding; settings: 25° C.
Description: as §1, §2

## CCCCCCCCOCC(C)(C)C(=O)Nc1ccc2cc1C(=O)Nc1ccc(NC(=O)C(C)(C)COCCCCCCCC)c(c1)C(=O)Nc1ccc(NC(=O)C(C)(C)COCCCCCCCC)c(c1)C(=O)Nc1ccc(NC(=O)C(C)(C)COCCCCCCCC)c(c1)C(=O)Nc1ccc(NC(=O)C(C)(C)COCCCCCCCC)c(c1)C(=O)N2 [c5a]
[1]; CH3CN:CHCl3 (5:95, v/v), two-step competition ITC with Cl^− as the competitor
  Association constant Ka, 1:1 complex with I^−: (6.67 ± 0.81) × 10^7 ^f M^−1
[1]; CH3CN:CHCl3 (5:95, v/v), ITC
  Association constant Ka, 1:1 complex with I^−: (7.78 ± 4.26) × 10^7 M^−1
[1]; DMSO-d6:CDCl3 (15:85, v/v) column, ITC measurements (footnote d)
  Association constant Ka, 1:1 complex with I^−: (1.18 ± 0.03) × 10^4 ^d M^−1
[1]; DMSO:CHCl3 (5:95, v/v), ITC
  Association constant Ka, 1:1 complex with I^−: (1.83 ± 0.08) × 10^5 M^−1
[2]; single NMR titration (protons a and b)
  Association constant Ka, 1:1 complex with ClO4^−: (5.74 ± 0.51) × 10^4 M^−1
[2]; triplicate NMR titrations (footnote c)
  Association constant Ka, 1:1 complex with ClO4^−: (9.60 ± 0.76) × 10^4 ^c M^−1
[3]
  Association constant Ka, 1:1 complex with Cl^−: (4.31 ± 0.12) × 10^3 M^−1
[4]
  sequence of halide transport efficiency (reduction of lucigenin fluorescence): Cl^−>Br^−>I^−
[5]
  Association constant Ka, 1:1 complex with PF6^−: not detected
[6]; CD3CN:CDCl3 (80:20, v/v), NMR titration
  Association constant Ka, 1:1 complex with NO3^−: >10^6 M^−1
[6]; DMSO-d6:CDCl3 (15:85, v/v), NMR titration (protons a and b)
  Association constant Ka, 1:1 complex with NO3^−: (1.57 ± 0.13) × 10^5 M^−1
[7]; CH3CN:CHCl3 (5:95, v/v)
  Association constant Ka, 1:1 complex with PF6^−: (1.23 ± 0.17) × 10^7 M^−1
[7]; DMSO:CHCl3 (5:95, v/v)
  Association constant Ka, 1:1 complex with PF6^−: (2.80 ± 0.20) × 10^4 M^−1
